In the supplement of paper PMC10307832:

Key:
Assay in all cases: relative viability (nuclei count vs DMSO), 5 days (fraction); higher = more cells survive
IA-LM = system: IA-LM
In short: (§1)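 Dosing by pin tool came one day after lung cancer cell lines were seeded in 1536-well plates, using either one drug or a fixed anchor-drug dose plus five library-drug doses (not always all listed) in √10 steps. After 5 days, nuclei were counted on 4× images. Relative viability is treated-well nuclei count divided by vehicle-well nuclei count, and values are medians of duplicate plates.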

NCI-H1299 = system: NCI-H1299
In short: as §1

Calu-6 = system: Calu-6
In short: as §1

HCC-15 = system: HCC-15
In short: as §1

EBC-1 = system: EBC-1
In short: as §1

NCI-H1703 = system: NCI-H1703
In short: as §1

HCC-44 = system: HCC-44
In short: as §1

EKVX = system: EKVX
In short: as §1

NCI-H1755 = system: NCI-H1755
In short: as §1

UMC-11 = system: UMC-11
In short: as §1

LCLC-103H = system: LCLC-103H
In short: as §1

## Nc1ccn([C@@H]2O[C@H](CO)[C@@H](O)[C@@H]2O)c(=O)n1 [Cytarabine] + CC(C)C[C@H](NC(=O)[C@H](Cc1ccccc1)NC(=O)c1cnccn1)B(O)O [Bortezomib] (partner 0.002 µM)
IA-LM; first compound 0.005 µM
  relative viability: 0.739
IA-LM; first compound 0.01581 µM
  relative viability: 0.663
IA-LM; first compound 0.05 µM
  relative viability: 0.648
IA-LM; first compound 0.1581 µM
  relative viability: 0.411
IA-LM; first compound 0.5 µM
  relative viability: 0.165
NCI-H1299; first compound 0.005 µM
  relative viability: 1.01
NCI-H1299; first compound 0.01581 µM
  relative viability: 1.09
NCI-H1299; first compound 0.05 µM
  relative viability: 1.05
NCI-H1299; first compound 0.1581 µM
  relative viability: 1.03
NCI-H1299; first compound 0.5 µM
  relative viability: 1
Calu-6; first compound 0.005 µM
  relative viability: 0.864
Calu-6; first compound 0.01581 µM
  relative viability: 0.794
Calu-6; first compound 0.05 µM
  relative viability: 0.749
Calu-6; first compound 0.1581 µM
  relative viability: 0.609
Calu-6; first compound 0.5 µM
  relative viability: 0.356
HCC-15; first compound 0.005 µM
  relative viability: 0.795
HCC-15; first compound 0.01581 µM
  relative viability: 1.03
HCC-15; first compound 0.05 µM
  relative viability: 1.16
HCC-15; first compound 0.1581 µM
  relative viability: 0.883
HCC-15; first compound 0.5 µM
  relative viability: 0.668
EBC-1; first compound 0.005 µM
  relative viability: 0.543
EBC-1; first compound 0.01581 µM
  relative viability: 0.49
EBC-1; first compound 0.05 µM
  relative viability: 0.515
EBC-1; first compound 0.1581 µM
  relative viability: 0.341
EBC-1; first compound 0.5 µM
  relative viability: 0.326
NCI-H1703; first compound 0.005 µM
  relative viability: 0.321
NCI-H1703; first compound 0.01581 µM
  relative viability: 0.172
NCI-H1703; first compound 0.05 µM
  relative viability: 0.145
NCI-H1703; first compound 0.1581 µM
  relative viability: 0.117
NCI-H1703; first compound 0.5 µM
  relative viability: 0.134
HCC-44; first compound 0.005 µM
  relative viability: 0.828
HCC-44; first compound 0.01581 µM
  relative viability: 0.895
HCC-44; first compound 0.05 µM
  relative viability: 0.793
HCC-44; first compound 0.1581 µM
  relative viability: 0.425
HCC-44; first compound 0.5 µM
  relative viability: 0.405
EKVX; first compound 0.005 µM
  relative viability: 1.22
EKVX; first compound 0.01581 µM
  relative viability: 0.947
EKVX; first compound 0.05 µM
  relative viability: 0.801
EKVX; first compound 0.1581 µM
  relative viability: 0.361
EKVX; first compound 0.5 µM
  relative viability: 0.178
NCI-H1755; first compound 0.005 µM
  relative viability: 0.922
NCI-H1755; first compound 0.01581 µM
  relative viability: 0.88
NCI-H1755; first compound 0.05 µM
  relative viability: 0.663
NCI-H1755; first compound 0.1581 µM
  relative viability: 0.282
NCI-H1755; first compound 0.5 µM
  relative viability: 0.294
UMC-11; first compound 0.005 µM
  relative viability: 0.339
UMC-11; first compound 0.01581 µM
  relative viability: 0.381
UMC-11; first compound 0.05 µM
  relative viability: 0.341
UMC-11; first compound 0.1581 µM
  relative viability: 0.155
UMC-11; first compound 0.5 µM
  relative viability: 0.155
LCLC-103H; first compound 0.005 µM
  relative viability: 0.977
LCLC-103H; first compound 0.01581 µM
  relative viability: 1.17
LCLC-103H; first compound 0.05 µM
  relative viability: 0.958
LCLC-103H; first compound 0.1581 µM
  relative viability: 1.04
LCLC-103H; first compound 0.5 µM
  relative viability: 0.966

## CC(=O)O[C@@]12CO[C@@H]1C[C@H](O)[C@@]1(C)C(=O)[C@H](O)C3=C(C)[C@@H](OC(=O)[C@H](O)[C@@H](NC(=O)OC(C)(C)C)c4ccccc4)C[C@@](O)([C@@H](OC(=O)c4ccccc4)[C@H]21)C3(C)C [Docetaxel] + CC(C)C[C@H](NC(=O)[C@H](Cc1ccccc1)NC(=O)c1cnccn1)B(O)O [Bortezomib] (partner 0.002 µM)
IA-LM; first compound 0.0002 µM
  relative viability: 0.471
IA-LM; first compound 0.000632 µM
  relative viability: 0.192
IA-LM; first compound 0.002 µM
  relative viability: 0.11
IA-LM; first compound 0.006325 µM
  relative viability: 0.0654
IA-LM; first compound 0.02 µM
  relative viability: 0.0642
NCI-H1299; first compound 0.0002 µM
  relative viability: 1.05
NCI-H1299; first compound 0.000632 µM
  relative viability: 0.997
NCI-H1299; first compound 0.002 µM
  relative viability: 0.948
NCI-H1299; first compound 0.006325 µM
  relative viability: 0.586
NCI-H1299; first compound 0.02 µM
  relative viability: 0.503
Calu-6; first compound 0.0002 µM
  relative viability: 0.95
Calu-6; first compound 0.000632 µM
  relative viability: 0.828
Calu-6; first compound 0.002 µM
  relative viability: 0.327
Calu-6; first compound 0.006325 µM
  relative viability: 0.182
Calu-6; first compound 0.02 µM
  relative viability: 0.106
HCC-15; first compound 0.0002 µM
  relative viability: 0.807
HCC-15; first compound 0.000632 µM
  relative viability: 0.78
HCC-15; first compound 0.002 µM
  relative viability: 0.231
HCC-15; first compound 0.006325 µM
  relative viability: 0.216
HCC-15; first compound 0.02 µM
  relative viability: 0.157
EBC-1; first compound 0.0002 µM
  relative viability: 0.479
EBC-1; first compound 0.000632 µM
  relative viability: 0.385
EBC-1; first compound 0.002 µM
  relative viability: 0.237
EBC-1; first compound 0.006325 µM
  relative viability: 0.27
EBC-1; first compound 0.02 µM
  relative viability: 0.174
NCI-H1703; first compound 0.0002 µM
  relative viability: 0.256
NCI-H1703; first compound 0.000632 µM
  relative viability: 0.249
NCI-H1703; first compound 0.006325 µM
  relative viability: 0.149
NCI-H1703; first compound 0.02 µM
  relative viability: 0.0944
HCC-44; first compound 0.0002 µM
  relative viability: 0.904
HCC-44; first compound 0.000632 µM
  relative viability: 0.905
HCC-44; first compound 0.002 µM
  relative viability: 0.57
HCC-44; first compound 0.006325 µM
  relative viability: 0.151
HCC-44; first compound 0.02 µM
  relative viability: 0.149
EKVX; first compound 0.0002 µM
  relative viability: 1.05
EKVX; first compound 0.000632 µM
  relative viability: 0.718
EKVX; first compound 0.002 µM
  relative viability: 0.429
EKVX; first compound 0.006325 µM
  relative viability: 0.269
EKVX; first compound 0.02 µM
  relative viability: 0.152
NCI-H1755; first compound 0.0002 µM
  relative viability: 0.984
NCI-H1755; first compound 0.000632 µM
  relative viability: 0.743
NCI-H1755; first compound 0.002 µM
  relative viability: 0.45
NCI-H1755; first compound 0.006325 µM
  relative viability: 0.368
NCI-H1755; first compound 0.02 µM
  relative viability: 0.315
UMC-11; first compound 0.0002 µM
  relative viability: 0.747
UMC-11; first compound 0.000632 µM
  relative viability: 0.763
UMC-11; first compound 0.002 µM
  relative viability: 0.162
UMC-11; first compound 0.006325 µM
  relative viability: 0.197
UMC-11; first compound 0.02 µM
  relative viability: 0.128
LCLC-103H; first compound 0.0002 µM
  relative viability: 1.15
LCLC-103H; first compound 0.000632 µM
  relative viability: 1.12
LCLC-103H; first compound 0.002 µM
  relative viability: 0.714
LCLC-103H; first compound 0.006325 µM
  relative viability: 0.589
LCLC-103H; first compound 0.02 µM
  relative viability: 0.402
